Patent publication US20190367516A1 (Bayer Pharma Aktiengesellschaft, priority 2015, published 2019)
Read-outs that look alike come from different tables or passages of the source.

Target: T1, human M2 receptor (Homo sapiens, UniProt P08172)
T1 sequence (P08172 1-466): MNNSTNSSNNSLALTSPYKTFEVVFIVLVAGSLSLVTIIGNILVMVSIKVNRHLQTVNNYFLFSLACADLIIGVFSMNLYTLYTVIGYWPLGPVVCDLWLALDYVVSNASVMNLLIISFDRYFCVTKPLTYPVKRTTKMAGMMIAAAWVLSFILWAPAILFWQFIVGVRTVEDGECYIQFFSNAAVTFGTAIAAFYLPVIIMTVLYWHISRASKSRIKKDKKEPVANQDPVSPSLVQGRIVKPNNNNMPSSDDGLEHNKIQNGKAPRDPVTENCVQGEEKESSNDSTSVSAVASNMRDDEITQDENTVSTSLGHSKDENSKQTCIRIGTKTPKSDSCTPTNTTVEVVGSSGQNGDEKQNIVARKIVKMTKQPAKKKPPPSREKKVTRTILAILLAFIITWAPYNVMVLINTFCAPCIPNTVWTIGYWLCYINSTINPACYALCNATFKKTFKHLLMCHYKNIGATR
Settings: for Emax: read-out: Efficiency, boosting of the acetylcholine effect at EC20 acetylcholine concentration

[1] = Receptor activity EC50, M2-GIRK1/4 activation test, acetylcholine at EC20, allosteric potency, in some cases mean values from two or more determinations
[2] = Receptor activity EC50, allosteric potency at EC20 acetylcholine, M2-GIRK1/4 reporter cells, in some cases mean of two or more determinations

Structure (SMILES) | EC50 [1] [nM] | EC50 [2] [nM] | Emax (M2-GIRK1/4 reporter cells) [%]
O=C(NC12CC3CC(CC(C3)C1)C2)c1cn(-c2ccc(F)cc2F)c2nc(N3CCOCC3)ccc2c1=O [Example 136, 1-(2,4-Difluorophenyl)-7-(morpholin-4-yl)-4-oxo-N-(tricyclo[3.3.1.1^3,7]dec-1-yl)-1,4-dihydro-1,8-naphthyridine-3-carboxamide] | 24 |  | 
CN(C)c1ccc2c(=O)c(C(=O)NC34CC5CC(C3)CC(C(F)(F)F)(C5)C4)cn(-c3ccc(F)cc3Cl)c2n1 [Example 153, 1-(2-Chloro-4-fluorophenyl)-7-(dimethylamino)-4-oxo-N-[3-(trifluoromethyl)tricyclo[3.3.1.1^3,7]dec-1-yl]-1,4-dihydro-1,8-naphthyridine-3-carboxamide] | 104 |  | 
O=C(NC12CC3CC(CC(C3)C1)C2)c1cn(-c2ccc(F)cc2F)c2nc(N3CCCC(O)C3)ccc2c1=O (racemic) [Example 14, rac-1-(2,4-Difluorophenyl)-7-(3-hydroxypiperidin-1-yl)-4-oxo-N-(tricyclo[3.3.1.1^3,7]dec-1-yl)-1,4-dihydro-1,8-naphthyridine-3-carboxamide] | 82 |  | 
CC(C)[C@H](NC(=O)c1cn(-c2ccc(F)cc2F)c2nc(N(C)C)ccc2c1=O)C(F)(F)F [Example 134, 1-(2,4-Difluorophenyl)-7-(dimethylamino)-4-oxo-N-[(2S)-1,1,1-trifluoro-3-methylbutan-2-yl]-1,4-dihydro-1,8-naphthyridine-3-carboxamide] | 32 |  | 
CC(C)C(NC(=O)c1cn(-c2c(F)cc(F)cc2F)c2nc(N3CCNC3=O)ccc2c1=O)C(F)(F)F (racemic) [Example 536, 4-Oxo-7-(2-oxoimidazolidin-1-yl)-N-[1,1,1-trifluoro-3-methylbutan-2-yl]-1-(2,4,6-trifluorophenyl)-1,4-dihydro-1,8-naphthyridine-3-carboxamide] |  | 16 | 99.5
O=C(N[C@@H](C1CC1)C(F)(F)F)c1cn(-c2c(F)cc(F)cc2F)c2nc(N3CCOC3=O)ccc2c1=O [Example 374, N-[(1S)-1-Cyclopropyl-2,2,2-trifluoroethyl]-4-oxo-7-(2-oxo-1,3-oxazolidin-1.3-yl)-1-(2,4,6-trifluorophenyl)-1,4-dihydro-1,8-naphthyridine-3-carboxamide] | 49 |  | 
O=C(NC12CC3CC(CC(C3)C1)C2)c1cn(-c2ccc(F)cc2F)c2nc(N3CC[S+]([O-])C3)ccc2c1=O (centres unmarked) [Example 131, 1-(2,4-Difluorophenyl)-7-(1-oxido-1,3-thiazolidin-3-yl)-4-oxo-N-(tricyclo[3.3.1.1^3,7]dec-1-yl)-1,4-dihydro-1,8-naphthyridine-3-carboxamide] | 157 |  | 
C[C@H](NC(=O)c1cn(-c2c(F)cccc2F)c2nc(N3CC4CC4(O)C3)ccc2c1=O)C(F)(F)F (single isomer, unassigned) [Example 312] | 72 |  | 
O=C(NC12CC3CC(CC(C3)C1)C2)c1cn(-c2ccc(F)cc2F)c2nc(N3CCNC3=O)ccc2c1=O [Example 186, 1-(2,4-Difluorophenyl)-4-oxo-7-(2-oxoimidazolidin-1-yl)-N-(tricyclo[3.3.1.1^3,7]dec-1-yl)-1,4-dihydro-1,8-naphthyridine-3-carboxamide] | 30 |  | 
CC(C)(NC(=O)c1cn(-c2ccc(F)cc2F)c2nc(N3CCNC3=O)ccc2c1=O)c1c(F)cccc1F [Example 184, 1-(2,4-Difluorophenyl)-N-[2-(2,6-difluorophenyl)propan-2-yl]-4-oxo-7-(2-oxoimidazolidin-1-yl)-1,4-dihydro-1,8-naphthyridine-3-carboxamide] | 129 |  | 
O=C(NC12CC3CC(CC(C3)C1)C2)c1cn(-c2ccc(F)cc2F)c2nc(N3CCOC(CO)C3)ccc2c1=O (racemic) [Example 118, rac-1-(2,4-Difluorophenyl)-7-[2-(hydroxymethyl)morpholin-4-yl]-4-oxo-N-(tricyclo[3.3.1.1^3,7]dec-1-yl)-1,4-dihydro-1,8-naphthyridine-3-carboxamide] | 91 |  | 
COC1(C)CN(c2ccc3c(=O)c(C(=O)NC45CC(C4)C5)cn(-c4c(F)cc(F)cc4F)c3n2)C1 [Example 641, N-(Bicyclo[1.1.1]pent-1-yl)-7-(3-methoxy-3-methylazetidin-1-yl)-4-oxo-1-(2,4,6-trifluorophenyl)-1,4-dihydro-1,8-naphthyridine-3-carboxamide] |  | 71 | 100
O=C(N[C@H](C1CC1)C(F)(F)F)c1cn(-c2c(F)cccc2F)c2nc(N3CC4CC4(O)C3)ccc2c1=O (mixture of isomers) [Example 319, N-[(1R)-1-Cyclopropyl-2,2,2-trifluoroethyl]-1-(2,6-difluorophenyl)-7-[1-hydroxy-3-azabicyclo[3.1.0]hex-3-yl]-4-oxo-1,4-dihydro-1,8-naphthyridine-3-carboxamide] | 25 |  | 
CC(C)(CC(F)(F)F)NC(=O)c1cn(-c2c(F)cc(F)cc2F)c2nc(N3CC(O)C4(CC4)C3)ccc2c1=O (racemic) [Example 569, 7-[7-Hydroxy-5-azaspiro[2.4]hept-5-yl]-4-oxo-N-(4,4,4-trifluoro-2-methylbutan-2-yl)-1-(2,4,6-trifluorophenyl)-1,4-dihydro-1,8-naphthyridine-3-carboxamide] |  | 49 | 100
CC[C@@H](NC(=O)c1cn(-c2ccc(F)cc2F)c2nc(N3CCOC(C(F)F)C3)ccc2c1=O)C(F)(F)F (single isomer, unassigned) [Example 264] | 530 |  | 
O=C(N[C@H](C(F)F)C1CC1)c1cn(-c2c(F)cc(F)cc2F)c2nc(N3C[C@@H](O)CC3=O)ccc2c1=O [Example 435, N-[(1 S)-1-Cyclopropyl-2,2-difluoroethyl]-7-[(4S)-4-hydroxy-2-oxopyrrolidin-1-yl]-4-oxo-1-(2,4,6-trifluorophenyl)-1,4-dihydro-1,8-naphthyridine-3-carboxamide] |  | 84 | 100
O=C(N[C@H](C1CC1)C(F)(F)F)c1cn(-c2c(Cl)cc(F)cc2Cl)c2nc(N3CCNC3=O)ccc2c1=O [Example 647, N-[(1R)-1-Cyclopropyl-2,2,2-trifluoroethyl]-1-(2,6-dichloro-4-fluorophenyl)-4-oxo-7-(2-oxoimidazolidin-1-yl)-1,4-dihydro-1,8-naphthyridine-3-carboxamide] |  |  | 92
O=C(NC(CC(F)(F)F)C1CC1)c1cn(-c2c(F)cc(F)cc2F)c2nc(N3C[C@@H](O)[C@H](O)C3)ccc2c1=O (mixture of isomers) [Example 438, N-[1-Cyclopropyl-3,3,3-trifluoropropyl]-7-[(3R,4R)-3,4-dihydroxypyrrolidin-1-yl]-4-oxo-1-(2,4,6-trifluorophenyl)-1,4-dihydro-1,8-naphthyridine-3-carboxamide] |  | 37 | 99.5
O=C(NC12CC(F)(C1)C2)c1cn(-c2c(F)cc(F)cc2Cl)c2nc(N3C[C@@H](O)CC3=O)ccc2c1=O [Example 397, 1-(2-Chloro-4,6-difluorophenyl)-N-(3-fluorobicyclo[1.1.1]pent-1-yl)-7-[(4S)-4-hydroxy-2-oxopyrrolidin-1-yl]-4-oxo-1,4-dihydro-1,8-naphthyridine-3-carboxamide] |  | 32 | 90
O=C(Nc1c(Cl)cccc1Cl)c1cn(-c2c(F)cc(F)cc2F)c2nc(N3C[C@@H](O)[C@H](O)C3)ccc2c1=O [Example 585, N-(2,6-Dichlorophenyl)-7-[(3R,4R)-3,4-dihydroxypyrrolidin-1-yl]-4-oxo-1-(2,4,6-trifluorophenyl)-1,4-dihydro-1,8-naphthyridine-3-carboxamide] |  | 14 | 95.5
CCC(COC(F)(F)F)NC(=O)c1cn(-c2c(F)cc(F)cc2F)c2nc(N3C[C@@H](O)CC3=O)ccc2c1=O (single isomer, unassigned) [Example 411] |  | 21 | 100
NC(=O)N1CCN(c2ccc3c(=O)c(C(=O)Nc4c(Cl)cccc4Cl)cn(-c4c(F)cc(F)cc4F)c3n2)CC1 [Example 636] |  | 60 | 98.1
CO[C@@H]1CN(c2ccc3c(=O)c(C(=O)N[C@@H](C4CC4)C(F)(F)F)cn(-c4c(F)cc(F)cc4F)c3n2)C[C@H]1O (single isomer, unassigned) [Example 583] |  | 19 | 100
CC(NC(=O)c1cn(-c2c(F)cc(F)cc2F)c2nc(N3C[C@@H](O)CC3=O)ccc2c1=O)C1CCC1 (mixture of isomers) [Example 471, N-[1-Cyclobutylethyl]-7-[(4S)-4-hydroxy-2-oxopyrrolidin-1-yl]-4-oxo-1-(2,4,6-trifluorophenyl)-1,4-dihydro-1,8-naphthyridine-3-carboxamide] |  | 10 | 89
O=C(N[C@@H](C1CC1)C(F)(F)F)c1cn(-c2c(F)cc(F)cc2F)c2nc(N3CCC[C@@H]3CO)ccc2c1=O [Example 661, N-[(1 S)-1-Cyclopropyl-2,2,2-trifluoroethyl]-7-[(2R)-2-(hydroxymethyl)pyrrolidin-1-yl]-4-oxo-1-(2,4,6-trifluorophenyl)-1,4-dihydro-1,8-naphthyridine-3-carboxamide] |  | 48 | 95.5
CC[C@H](NC(=O)c1cn(-c2c(F)cccc2F)c2nc(N3CCC(C)(O)C3)ccc2c1=O)C(F)(F)F (stereo partly drawn) [Example 327, 1-(2,6-Difluorophenyl)-7-[3-hydroxy-3-methylpyrrolidin-1-yl]-4-oxo-N-[(2S)-1,1,1-trifluorobutan-2-yl]-1,4-dihydro-1,8-naphthyridine-3-carboxamide] | 69 |  | 
